According to PubChem BioAssay AID652144 (Broad Institute, 2013):
Inconclusive results are not listed. Calls of active or inactive are those of the source. How the calls were made is not given here.

Key:
Test in all cases: viability reduction measured by resazurin – cell-based, Alamar Blue fluorescence, multiple timepoints, mechanism study for HRAS target identification project, profiling panel (AID 652144)
Conditions in all cases: Cancer/normal cell panel viability, 8-48 h
U-251 = tested on: U-251
C2C12 = tested on: C2C12
LOX-IMVI = tested on: LOX-IMVI
SNB-75 = tested on: SNB-75
CCRF-CEM = tested on: CCRF-CEM
SR = tested on: SR
HUVEC = tested on: HUVEC
HT-29 = tested on: HT-29
HeLA = tested on: HeLA
SNB-19 = tested on: SNB-19

| SMILES | outcome (U-251) | outcome (C2C12) | outcome (LOX-IMVI) | outcome (SNB-75) | outcome (CCRF-CEM) | outcome (SR) | outcome (HUVEC) | outcome (HT-29) | outcome (HeLA) | outcome (SNB-19) | AC50 (U-251) | AC50 (C2C12) | AC50 (LOX-IMVI) | AC50 (SNB-75) | AC50 (CCRF-CEM) | AC50 (SR) | AC50 (HUVEC) | AC50 (HT-29) | AC50 (HeLA) | AC50 (SNB-19) |
| --- | --- | --- | --- | --- | --- | --- | --- | --- | --- | --- | --- | --- | --- | --- | --- | --- | --- | --- | --- | --- |
| Cc1onc(C(=O)N2CCN(C(c3ccncc3)c3ccncc3)CC2)c1[N+](=O)[O-] | inactive | inactive | inactive | inactive | inactive | inactive | inactive | inactive | inactive | inactive |  |  |  |  |  |  |  |  |  |  |
| CC(C)(C)OC(=O)NCCOCCOCCOc1ccc(N(C(=O)CCl)C(C(=O)NCCc2ccccc2)c2cccs2)cc1Cl (centres undefined) |  |  |  |  |  |  |  |  |  |  | 1350 nM | 442 nM | 83.4 nM | 686 nM | 86.5 nM | 95.1 nM | 13700 nM | 457 nM | 650 nM | 1720 nM |
| Cc1onc(C(=O)N2CCN(C(c3ccc(Cl)cc3)c3ccc(Cl)cc3)CC2)c1[N+](=O)[O-] |  |  |  |  |  |  | inactive |  |  |  | > 70000 nM (inactive) |  | 103 nM | 687 nM | 144 nM | 142 nM |  | 963 nM |  |  |
| C#CCCCC(=O)NCCOCCOCCOc1ccc(N(C(=O)CCl)C(C(=O)NCCc2ccccc2)c2cccs2)cc1Cl (centres undefined) |  |  |  |  |  |  |  |  |  |  | 6810 nM | 5420 nM | 421 nM | 3560 nM | 997 nM | 885 nM |  | 2860 nM | 4490 nM | 4450 nM |
| COC(=O)c1ccc([C@@H]2c3[nH]c4ccccc4c3C[C@@H](C(=O)OC)N2C(=O)CCl)cc1 |  |  |  |  |  |  |  |  |  |  | 1060 nM | 101 nM | 31 nM | 355 nM | 50.2 nM | 32.9 nM |  | 177 nM | 573 nM |  |
| COc1ccc(N(C(=O)CCl)C(C(=O)NCCc2ccccc2)c2cccs2)cc1Cl (centres undefined) |  |  |  |  |  |  |  |  |  |  | 896 nM | 842 nM | 40.5 nM | 286 nM | 78.5 nM | 61.8 nM | 8940 nM | 162 nM | 547 nM | 1170 nM |
| CCC(=O)N(c1ccc(OC)c(Cl)c1)C(C(=O)NCCc1ccccc1)c1cccs1 (centres undefined) | inactive |  | inactive |  |  |  |  |  |  | inactive |  |  |  |  |  |  |  | > 70000 nM (inactive) | > 70000 nM (inactive) |  |
